Measured values reported in patent US11000529B2, “Human papilloma virus replication inhibitors” (Icosagen Cell Factory OÜ, priority 2015, dated 2021).
“Also recorded” adds a separate entry of the source.

Legend:
HPV18 [1] = assay: HPV18 initial amplification replication assay in U2OS cells (Southern Blot); assay type: cell-based; conditions: for HPV18 replication after shRNA downregulation: 3 and 4 days after transfection, vs empty shRNA plasmid; for IC50: 120 h, read-out: IC50 of HPV18 initial amplification; for inhibition of HPV18 initial amplification: HPV18 wt minicircle, 5 days, Southern Blot, relative to DMSO
Source text: FIG. 2 Effect of the identified five compounds on HPV18 initial amplification. A: U2OS cells were transfected with HPV18 wt minicircle and grown in the presence of the compounds with indicated concentrations for 5 days. Genomic DNA was extracted, linearized, and digested with DpnI. HPV genome replication signals were detected using Southern Blot analyses and quantified with phosphoimager and expressed relative to vehicle control (DMSO). Approximate IC50 values are shown for each compound. Error-bars represent standard deviation from at least three independent experiment. B: U2OS cells were transfected with the expression vectors of HPV18 E1 and E2 proteins together with HPV18 URR (origin) minicircle plasmid. The cells were grown in the presence of the compounds with indicated concentrations for 24 or 48 hours. Genomic DNA was extracted, linearized and digested with DpnI. HPV URR replication signals were detected by Southern Blot analyses. DMSO serves as vehicle control and M 18URR serves as size marker.
(§1) Replication assay. The U2OS or U2OS-EBNA1 cells were transfected with 2 ug of HPV18 minicircle genome and lug of oriP plasmid (only in case of U2OS-EBNA1 cells). All the compounds were added to the media immediately after the transfection and media was changed on the third day. Replication signals were detected with Southern Blot method. Briefly, genomic DNA was extracted 3 and 4 days after the transfection with sh_RNAs or with the use of ABT-888 and 5 days after for analyses of the effects of HPV inhibitors w/wo CPT. DNA was digested with BglI and DpnI for analyses of HPV18 replication and with BstXI, ScaI and DpnI for analyses of HPV18 and oriP replication simultaneously. 3 ug of DNA was resolved in agarose gel, transferred to a nylon membrane (Membrane Solutions LLC) and hybridized with specific radioactively labeled probes. Signals were detected and quantified with Typhoon Trio+ phosphoimager (GE Healthcare) and exposed on an X-ray film (AGFA).
for compounds inhibiting initial amplification of HPV18 genome in U2OS cells. HT-screening was conducted with all the compounds in this library in 5 uM and 1 uM concentrations and it gave us 80 hits (approximately 5% of analyzed compounds). After validation of the hits on HPV18 wt genome, we found five compounds inhibiting initial amplification of HPV18 in U2OS cells (FIG. 1). To further characterize the compounds, we performed replication assay described in Example 1.

Tdp1 = assay: Western Blot of Tdp1 after shRNA in U2OS cells; assay type: cell-based
Source text: (§2) FIG. 4 Involvement of Tdp1 and PARP1 in HPV18 initial amplification. A: U2OS cells were transfected with HPV18 wt minicircle and sh_Tdp1 plasmid. Genomic DNA was extracted 3 and 4 days after the transfection, linearized and digested with DpnI. HPV replication signal was detected with Southern Blot analyses and B: quantified with phosphoimager. C: Western Blot analyses showing downregulation of Tdp1 protein by shRNA. D: U2OS cells were transfected with HPV18 wt minicircle and sh_PARP1 plasmid. HPV replication signal was detected with Southern Blot analyses and E: quantified with phosphoimager. F: Western Blot analyses showing downregulation of PARP1 protein by shRNA. G: U2OS cells were transfected with HPV18 wt minicircle and grown for 3 and 4 days in the presence of different concentrations of PARP1 inhibitor ABT-888. HPV replication signal was detected with Southern Blot analyses and H: quantified with phosphoimager. Error-bars represent standard deviations from at least three independent experiments.
(§3) Western Blot. The cells were lysed with Laemmli buffer (4% SDS, 20% glycerol, 120 mM Tris-Cl (pH 6.8), and 200 mM DTT) and boiled for 10 minutes at 100° C. […] Tdp1 and PARP1 were detected with their specific antibodies from Santa Cruz Biotechnology: sc-365674 and sc-56197 respectively. Tubulin (used as loading control) was detected using Sigma Aldrich antibody T9026. […]

HPV18 [2] = assay: HPV18 replication in U2OS-EBNA1 cells, compounds alone or with CPT; assay type: cell-based; conditions: 5 days; for synergistic effect together with CPT on HPV18 replication: U2OS-EBNA1, with 2 nM CPT
Protocol: FIG. 5 Synergistic effect between Camptothecin (CPT) and the identified five compounds. U2OS-EBNA1 cells were transfected with HPV18 wt and oriP plasmids and grown in the presence of indicated concentrations of the compounds alone or together with 2 nM CPT for 5 days. Genomic DNA was extracted, linearized and digested with DpnI. Both HPV18 and oriP replication signals were detected with Southern Blot and quantified by phosphoimager. […] Error-bars represent standard deviations from at least three independent experiments.
as §1
Synergistic effect of Campthotecin (CPT) and HPV18 replication inhibitors. CPT is a Topoisomerase I inhibitor that stabilizes entrapped Top1cc complexes to DNA. Since Tdp1 is responsible for cleaving entrapped Top1cc complexes from DNA, synergistic effect between CPT and Tdp1 inhibitors occurs. In the experiments shown in FIG. 5 we used U2OS cells constitutively expressing Epstein Barr virus (EBV) EBNA1 protein—U2OS-EBNA1. These cells allow to monitor HPV and EBNA1 supported oriP plasmid replication simultaneously. […] U2OS-EBNA1 cells were cotransfected with HPV18 genome and oriP plasmid and the cells were grown in the presence of various concentrations of the identified HPV inhibitors alone or together with 2 nM of CPT for 5 days, DMSO was used as vehicle control.

HPV18 [3] = assay: Stable maintenance of HPV18 in U2OS #1.13 cells, subconfluent; assay type: cell-based; conditions: U2OS #1.13, subconfluent, 7 days; for HPV18 replication signal lost: compared to DMSO control
Protocol: (§4) FIG. 3 Effect of compounds on stable maintenance and vegetative amplification of HPV18. A: U2OS #1.13 cells were grown in subconfluent conditions in the presence of the identified five compounds for 7 days. Genomic DNA was extracted, linearized and HPV replication signal was detected by Southern Blot and B: quantified by phosphoimager. C: U2OS #1.13 were seeded and grown for 5 days without splitting. On the 5th day indicated concentrations of compounds were added to the media and the cells were grown for additional 7 days without splitting. On the 12th day genomic DNA was extracted, linearized and HPV replication signal was detected by Southern Blot and D: quantified by phosphoimager. Error-bars represent standard deviations from at least two independent experiments.
Our U2OScell-based system is suitable for studying all three replication stages of various HPV subtypes. Stable maintenance phase could be monitored by maintaining HPV-positive cells in subconfluent conditions. We used HPV18 positive monoclonal U2OS cell-line #1.13 with viral copy number ˜2000. We grew the #1.13 cells in the presence of various concentration of compounds in subconfluent conditions (cells were split every three days) for 7 days. HPV18 replication signal was detected by Southern blot analyses and quantified with phosphoimager. About 50% of the signal was lost in case of compound 82269 compared to the DMSO control (FIG. 3, panel A, compare lanes 4-6 with lane 15 and panel B).

HPV18 [4] = assay: Vegetative amplification of HPV18 in U2OS #1.13 cells, confluent; assay type: cell-based; conditions: U2OS #1.13, confluent, compounds added on 5th day for additional 7 days
Protocol: as §4
If #1.13 is grown in confluent conditions for at least 5 days, vegetative amplification of HPV genome is turned on. We seeded equal amounts of cells onto plates and grew them for 5 days without splitting. On the 5th day various concentrations of compound were added and the cells were grown for additional 7 days (media was changed every two days throughout the experiment). HPV replication signal was detected by Southern Blot analyses and quantified with phosphoimager.

Tdp = Tdp (Homo sapiens, UniProt Q9NUW8); conditions: known from the literature; cited from earlier work
PARP1 = assay: Western Blot of PARP1 after shRNA in U2OS cells; assay type: cell-based
Source text: as §2, §3

Tdp, sequence (Q9NUW8 whole entry): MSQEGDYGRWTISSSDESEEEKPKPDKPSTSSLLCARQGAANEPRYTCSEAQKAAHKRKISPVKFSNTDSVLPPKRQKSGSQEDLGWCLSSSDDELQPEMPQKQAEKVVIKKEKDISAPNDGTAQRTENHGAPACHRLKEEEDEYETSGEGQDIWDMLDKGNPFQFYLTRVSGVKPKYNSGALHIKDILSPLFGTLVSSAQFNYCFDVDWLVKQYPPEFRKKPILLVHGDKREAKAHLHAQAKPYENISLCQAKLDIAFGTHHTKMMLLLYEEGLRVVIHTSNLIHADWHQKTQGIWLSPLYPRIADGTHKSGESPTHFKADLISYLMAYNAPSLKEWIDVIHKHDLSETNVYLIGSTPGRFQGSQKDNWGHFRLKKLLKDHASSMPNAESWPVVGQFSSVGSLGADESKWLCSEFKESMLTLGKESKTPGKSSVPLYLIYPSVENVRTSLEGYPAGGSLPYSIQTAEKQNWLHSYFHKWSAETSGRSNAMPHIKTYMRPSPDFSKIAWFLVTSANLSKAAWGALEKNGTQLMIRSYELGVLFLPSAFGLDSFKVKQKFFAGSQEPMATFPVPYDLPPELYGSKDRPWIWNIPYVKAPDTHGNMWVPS

shRNA_Tdp1: Tdp1 shRNA plasmid, SEQ ID NO: 1, expression under RNA polymerase III promoter U6 (DNA GCACGATCTCTCTGAAACAAACTCGAGTTTGTTTCAGAGAGATCGT) [reference compound]
HPV18 replication after shRNA downregulation (HPV18 [1]): clear decrease in HPV18 replication | Tdp1 expression (Tdp1): decreased significantly

CC[C@@]1(O)C(=O)OCc2c1cc1n(c2=O)Cc2cc3ccccc3nc2-1 [CPT, Camptothecin, reference compound]
HPV18 initial amplification, CPT alone (HPV18 [2]; U2OS-EBNA1, 2 nM): did not inhibit

C[C@]1(c2nc3c(C(N)=O)cccc3[nH]2)CCCN1 [ABT-888, veliparib, reference compound]
HPV18 replication in presence of PARP1 inhibitor (HPV18 [1]; 3 and 4 days, various concentrations, vs DMSO): HPV18 replication is decreased

C[C@]12CC[C@H]3[C@H](CCC4=CC(=O)CC[C@@]43C)[C@@H]1CC[C@@H]2C(=O)COS(=O)(=O)c1ccc(Br)cc1 [NSC 88915]
IC50 (HPV18 [1]): 2.5 to 60 µM | inhibition of HPV18 initial amplification (HPV18 [1]): concentration-dependent inhibition | effect on stable maintenance of HPV18 (HPV18 [3]): only inhibits stable maintenance phase | HPV18 replication signal lost (HPV18 [3]): about 70% | effect on vegetative amplification of HPV18 (HPV18 [4]): did not have any effect | synergistic effect together with CPT on HPV18 replication (HPV18 [2]): clear concentration dependent synergistic effect; also recorded: clear synergistic inhibition | Tdp inhibition (Tdp): known to inhibit Tdp

CC(=O)OC1CCC2(C)C(CCC3C2CC(=O)C2(C)C3CC(N3CC3)C2C(C)=O)C1 (stereo not drawn) [NSC 109128]
IC50 (HPV18 [1]): 2.5 to 60 µM | inhibition of HPV18 initial amplification (HPV18 [1]): concentration-dependent inhibition | effect on stable maintenance of HPV18 (HPV18 [3]): clearly inhibit | HPV18 replication signal lost (HPV18 [3]): about 70% | effect on vegetative amplification of HPV18 (HPV18 [4]): almost completely abolished amplification; also recorded: clearly inhibit | synergistic effect together with CPT on HPV18 replication (HPV18 [2]): clear concentration dependent synergistic effect; also recorded: clear synergistic inhibition

CSc1ncc2[nH]c(C(O)c3ccccc3)nc2n1 (stereo not drawn) [NSC82269]
IC50 (HPV18 [1]): 2.5 to 60 µM | inhibition of HPV18 initial amplification (HPV18 [1]): concentration-dependent inhibition | effect on stable maintenance of HPV18 (HPV18 [3]): clearly inhibit | HPV18 replication signal lost (HPV18 [3]): About 50% | effect on vegetative amplification of HPV18 (HPV18 [4]): clear concentration-dependent inhibition; also recorded: clearly inhibit | synergistic effect together with CPT on HPV18 replication (HPV18 [2]): no synergistic effect; also recorded: does not

shRNA_PARP1: PARP1 shRNA plasmid, SEQ ID NO: 2, expression under RNA polymerase III promoter U6 (DNA GGACTCGCTCCGGATGGCCTTCAAGAGAGGCCATCCGGAGCGAGTCC) [reference compound]
HPV18 replication after shRNA downregulation (HPV18 [1]): inhibits HPV18 replication significantly | PARP1 expression (PARP1): decreased

Cc1cc(O)cc2c1[C@H]1CC[C@]3(C)C(=O)CC[C@H]3[C@H]1C=C2 [NSC 9782]
IC50 (HPV18 [1]): 2.5 to 60 µM | inhibition of HPV18 initial amplification (HPV18 [1]): concentration-dependent inhibition | effect on stable maintenance of HPV18 (HPV18 [3]): no significant reduction in signal; also recorded: does not inhibit any of the later replication stages | effect on vegetative amplification of HPV18 (HPV18 [4]): did not have any effect; also recorded: does not inhibit any of the later replication stages | synergistic effect together with CPT on HPV18 replication (HPV18 [2]): clear concentration dependent synergistic effect; also recorded: clear synergistic inhibition
